Source: US5397774A, “Pyrazolopyrimidine and pyrimidinyl bisphosphonic esters as anti-inflammatories” (The Upjohn Company, priority 1993, dated 1995)
Counter-ions that a name gives are not always drawn.

System: DTH granuloma (DTH GRA) lesion in mBSA-sensitized mice
Experiment: Delayed Type Hypersensitivity Granuloma Assay (DTH GRA) model for inflammation
Format: in vivo, mouse
Conditions: for inhibition in vivo at 10 mg/kg / % Inhibition: 10 mg/kg PO, mouse DTH granuloma excised after nine days; for inhibition in vivo at 50 mg/kg: footnote a: tested at 50 mg/kg
Method: This assay is described by Dunn, C.
Briefly, mBSA-sensitized mice have a DTH granuloma (DTH GRA) lesion induced by subcutaneously implanting a mBSA-soaked filter which is excised after nine days. Compounds are administered to the mice to determine their effect on the lesions. The results are recorded as percent inhibition. […] Inhibition of 10 to 20% is considered to indicate anti-granuloma activity.
Again, as in Table 1, the results are recorded as percent inhibition. […] Inhibition of 10 to 20% is considered to indicate anti-granuloma activity. […]

[1] = Mus musculus, po, 216 h, Table 2, Formula 2 compounds
[2] = Mus musculus, po, 216 h, Table 1, Formula 1 compounds
[3] = Mus musculus, po, 216 h, Table 1, Formula 1 compounds, PO
[4] = Table 2, Formula 2 compounds, 10 mg/kg

CCOP(=O)(OCC)C(CCc1nc(-c2ccc(OC)cc2)cc(=O)n1C)P(=O)(OCC)OCC [bb, (3-(2-(3-Methyl-4-oxo-6-(4-methoxyphenyl)-4(3H)-pyrimidinyl))-propylidine)bisphosphonic acid tetraethyl ester]
inhibition in vivo at 10 mg/kg [1]: 22%

CCOP(=O)(OCC)C(CCc1cc(C)nc2cc(OC(=O)c3ccccc3)nn12)P(=O)(OCC)OCC [f, (3-(2-Benzoyloxy-5-methyl-pyrazolo(1,5-a)pyrimidin-7-yl)-propylidene)bisphosphonic acid tetraethyl ester]
inhibition in vivo at 10 mg/kg [2]: 41%

CCOP(=O)(OCC)C(CCc1cc(C)nc2c(I)c(-c3ccccc3)nn12)P(=O)(OCC)OCC [j, (3-(3-Iodo-5-methyl-2-phenyl-pyrazolo(1,5-a)pyrimidin-7-yl)-propylidene)bisphosphonic acid tetraethyl ester]
inhibition in vivo at 10 mg/kg [2]: 53%

CCOP(=O)(OCC)C(CCc1cc(C)nc2c([N+](=O)[O-])c(C)nn12)P(=O)(OCC)OCC [e, (3-(3-Nitro-2,5-dimethyl-pyrazolo(1,5-a)pyrimidin-7-yl)-propylidene)bisphosphonic acid tetraethyl ester]
inhibition in vivo at 10 mg/kg [2]: 41%

CCOP(=O)(OCC)C(CCc1cc(C)nc2c(Cl)c(-c3ccccc3)nn12)P(=O)(OCC)OCC [k, (3-(3-Chloro-5-methyl-2-phenyl-pyrazolo(1,5-a)pyrimidin-7-yl)-propylidene)bisphosphonic acid tetraethyl ester]
inhibition in vivo at 50 mg/kg [3]: 31%

CCCCCCOc1cc2nc(C)cc(CCC(P(=O)(OCC)OCC)P(=O)(OCC)OCC)n2n1 [h, (3-(2-Hexyloxy-5-methyl-pyrazolo(1,5-a)pyrimidin-7-yl)propylidene)-bisphosphonic acid tetraethyl ester]
inhibition in vivo at 10 mg/kg [2]: 49%

CCOP(=O)(OCC)C(CCc1nc(-c2cccc(OC)c2)cc(=O)n1C)P(=O)(OCC)OCC [w, (3-(2-(3-Methyl-4-oxo-6-(3-methoxy-phenyl)-4(3H)-pyrimidinyl))-propylidine) bisphosphonic acid tetraethyl ester]
inhibition in vivo at 10 mg/kg [1]: 13%

CCOP(=O)(OCC)C(CCc1cc(C)nc2c(C#N)c(C)nn12)P(=O)(OCC)OCC [a, (3-(3-Cyano-2,5-dimethyl-pyrazolo(1,5-a)pyrimidin-7-yl)propylidene)bisphosphonic acid tetraethyl ester]
inhibition in vivo at 10 mg/kg [2]: 46%

CCOP(=O)(OCC)C(CCc1cc(C)nc2cc(-c3ccccc3)nn12)P(=O)(OCC)OCC [i, (3-(5-Methyl-2-phenyl-pyrazolo(1,5-a)pyrimidin-7-yl)-propylidene)bisphosphonic acid tetraethyl ester]
inhibition in vivo at 10 mg/kg [2]: 47%

CCOP(=O)(OCC)C(CCc1nc(-c2ccc(Br)cc2)cc(=O)n1C)P(=O)(OCC)OCC [aa, (3-(2-(3-Methyl-4-oxo-6-(4-bromophenyl)-4(3H)-pyrimidinyl))-propylidine)bisphosphonic acid tetraethyl ester]
inhibition in vivo at 10 mg/kg [1]: 20%

Cc1cc(CCC(P2(=O)OCC(C)(C)CO2)P2(=O)OCC(C)(C)CO2)n2nc(C)c(C#N)c2n1 [n, (3-(3-Cyano-2,5-dimethyl-pyrazolo(1,5-a)pyrimidin-7-yl)-propylidene)bis(5,5-dimethyl-2,2'-dioxide-1,3,2-dioxaphosphorinane)]
inhibition in vivo at 10 mg/kg (216 h, Table 1, Formula 1 compounds): 45%

CCOP(=O)(OCC)C(CCc1nc(-c2ccccc2)cc(=O)n1Cc1ccccc1)P(=O)(OCC)OCC [r, (3-(2-(3-Benzyl-4-oxo-6-phenyl-4(3H)-pyrimidinyl))-propylidine)bisphosphonic acid tetraethyl ester]
inhibition in vivo at 10 mg/kg [1]: 17%

CCOP(=O)(OCC)C(CCc1nc(-c2cccc(F)c2)cc(=O)n1C)P(=O)(OCC)OCC [s, (3-(2-(3-Methyl-4-oxo-6-(3-fluoro-phenyl)-4(3H)-pyrimidinyl))-propylidine)bisphosphonic acid tetraethyl ester]
inhibition in vivo at 10 mg/kg [1]: 32%

C=CCn1c(CCC(P(=O)(OCC)OCC)P(=O)(OCC)OCC)nc(-c2ccccc2)cc1=O [hh, (3-(2-(3-Allyl-4-oxo-6-phenyl-4(3H)-pyrimidinyl))-propylidine)bisphosphonic acid tetraethyl ester]
% Inhibition [4]: 11%

CCOP(=O)(OCC)C(CCc1cc(C)nc2cc(OCc3ccccc3)nn12)P(=O)(OCC)OCC [g, (3-(2-Benzyloxy-5-methyl-pyrazolo(1,5-a)pyrimidin-7-yl)-propylidene)bisphosphonic acid tetraethyl ester]
inhibition in vivo at 10 mg/kg [2]: 44%

CCOP(=O)(OCC)C(CCc1nc2cc(Cl)ccc2c(=O)n1C)P(=O)(OCC)OCC [oo]
% Inhibition (Table 2, Formula 2 compounds): 41%

CCOP(=O)(OCC)C(CCc1nc(-c2ccc(N(C)C)cc2)cc(=O)n1C)P(=O)(OCC)OCC [cc, (3-(2-(3-Methyl-4-oxo-6-(4-dimethylaminophenyl)-4(3H)-pyrimidinyl))-propylidine)bisphosphonic acid tetraethyl ester]
inhibition in vivo at 10 mg/kg [1]: 63%

Cn1c(CCC(P2(=O)OCC(C)(C)CO2)P2(=O)OCC(C)(C)CO2)nc(-c2cc(F)c(N3CCCCC3)c(F)c2F)cc1=O [mm, (3-(2-(3-Methyl-4-oxo-6-(2,3,5-trifluoro-4-piperidinophenyl)-4(3H)-pyrimidinyl))-propylidine)bis(5,5-dimethyl-2,2'-dioxide-1,3,2-dioxaphosphorinane)]
inhibition in vivo at 10 mg/kg (216 h, Table 2, Formula 2 compounds): 50%

CCOP(=O)(OCC)C(CCc1nc(-c2ccccc2)cc(=O)n1CC)P(=O)(OCC)OCC [ii, (3-(2-(3-Ethyl-4-oxo-6-phenyl-4(3H)-pyrimidinyl))-propylidine)bisphosphonic acid tetraethyl ester]
inhibition in vivo at 10 mg/kg [1]: 12%

C=CCn1c(CCC(P(=O)(OCC)OCC)P(=O)(OCC)OCC)nc(-c2ccccc2)cc1=O [t, (3-(2-(3-Allyl-4-oxo-6-phenyl-4(3H)-pyrimidinyl))-propylidine)bisphosphonic acid tetraethyl ester]
inhibition in vivo at 10 mg/kg [1]: 7%

CCOP(=O)(OCC)C(CCc1nc(-c2ccccc2)c(Br)c(=O)n1C)P(=O)(OCC)OCC [y, (3-(2-(3-Methyl-4-oxo-5-bromo-6-phenyl-4(3H)-pyrimidinyl))-propylidine)bisphosphonic acid tetraethyl ester]
inhibition in vivo at 10 mg/kg [1]: 7%

3-(7-Chloro-3-(α,α,α-trifluoro-o-tolyl)-4(3H)-quinazolinone)-propylidine)bisphosphonic acid tetraethyl ester [pp]
% Inhibition (Table 2, Formula 2 compounds): 24%

CCOP(=O)(OCC)C(CCc1nc(-c2ccccc2)cc(=O)n1C)P(=O)(OCC)OCC [p, (3-(2-(3-Methyl-4-oxo-6-phenyl-4(3H)-pyrimidinyl))-propylidine)bisphosphonic acid tetraethyl ester]
inhibition in vivo at 10 mg/kg [1]: 60%

CCOP(=O)(OCC)C(CCc1nc(-c2ccccc2)cc(=O)n1Cc1ccccc1)P(=O)(OCC)OCC [gg, (3-(2-(3-Benzyl-4-oxo-6-phenyl-4(3H)-pyrimidinyl))-propylidine)bisphosphonic acid tetraethyl ester]
% Inhibition [4]: 20%

COP(=O)(OC)C(CCc1nc(-c2ccccc2)cc(=O)n1C)P(=O)(OC)OC [z, (3-(2-(3-Methyl-4-oxo-6-phenyl-4(3H)-pyrimidinyl))-propylidine)bisphosphonic acid tetramethyl ester]
inhibition in vivo at 10 mg/kg [1]: 36%

3-(7-Chloro-3-(2-fluoro-phenyl)-4(3H)-quinazolinone)-propylidine)bisphosphonic acid tetraethyl ester [qq]
% Inhibition (Table 2, Formula 2 compounds): 29%

CCOP(=O)(OCC)C(CCc1nc(-c2cccc(C(F)(F)F)c2)cc(=O)n1C)P(=O)(OCC)OCC [x, (3-(2-(3-Methyl-4-oxo-6-(3-trifluoromethyl-phenyl)-4(3H)-pyrimidinyl))propylidine)bisphosphonic acid tetraethyl ester]
inhibition in vivo at 10 mg/kg [1]: 6%

CCOP(=O)(OCC)C(CCc1cc(C)nc2c(Br)c(-c3ccccc3)nn12)P(=O)(OCC)OCC [l, (3-(3-Bromo-5-methyl-2-phenyl-pyrazolo(1,5-a)pyrimidin-7-yl)-propylidene)bisphosphonic acid tetraethyl ester]
inhibition in vivo at 50 mg/kg [3]: 23%

CCCn1c(CCC(P(=O)(OCC)OCC)P(=O)(OCC)OCC)nc(-c2ccccc2)cc1=O [jj, (3-(2-(3-Propyl-4-oxo-6-phenyl-4(3H)-pyrimidinyl))-propylidine)bisphosphonic acid tetraethyl ester]
inhibition in vivo at 10 mg/kg [1]: 41%

CCOc1ccc(-c2cc(=O)n(C)c(CCC(P(=O)(OCC)OCC)P(=O)(OCC)OCC)n2)cc1 [ee, (3-(2-(3-Methyl-4-oxo-6-(4-ethoxyphenyl)-4(3H)-pyrimidinyl))-propylidine)bisphosphonic acid tetraethyl ester]
inhibition in vivo at 10 mg/kg [1]: 46%

CCOP(=O)(OCC)C(CCc1c(Cl)c(C)nc2c(C#N)c(C)nn12)P(=O)(OCC)OCC [o, (3-(6-Chloro-3-cyano-2,5-dimethyl-pyrazolo(1,5-a)pyrimidin-7-yl)-propylidene)bisphosphonic acid tetraethyl ester]
inhibition in vivo at 10 mg/kg [2]: 53%

CCOP(=O)(OCC)C(CCc1nc(-c2cccc(C)c2)cc(=O)n1C)P(=O)(OCC)OCC [v, (3-(2-(3-Methyl-4-oxo-6-(3-methyl-phenyl)-4(3H)-pyrimidinyl))-propylidine)bisphosphonic acid tetraethyl ester]
inhibition in vivo at 10 mg/kg [1]: 40%

Cn1c(CCC(P(=O)(O)O)P(=O)(O)O)nc(-c2ccccc2)cc1=O [q, (3-(2-(3-Methyl-4-oxo-6-phenyl-4(3H)-pyrimidinyl))-propylidine)bisphosphonic acid disodium salt]
inhibition in vivo at 1 mg/kg (Mus musculus, 216 h, Table 2, Formula 2 compounds, tested at 1 mg/kg, PO): 57%
